Source: US11607414B2, “Small molecule inhibitors of EGFR and PI3K” (The Regents of the University of Michigan, priority 2014, dated 2023)

Experiments:
PIK3CA = PIK3CA (Homo sapiens, UniProt P42336); assay: ADAPTA universal kinase assay, PIK3CA; assay type: biochemical
Method: Various compounds were tested for their ability to inhibit EGFR and PIK3CA. The assays determining inhibitions are given in Example 2 Assays-Z′-LYTE® and ADAPTA.
Enzyme: The ADAPTA universal kinase assay is a homogenous, fluorescent based immunoassay for the detection of ADP. In contrast to ATP depletion assays, the ADAPTA assay is extremely sensitive to ADP formation such that a majority of the signal change occurs in the first 10-20% conversion of ATP to ADP. This makes the ADAPTA universal kinase assay ideally suited for use with low activity kinases.
The principle of the ADAPTA universal kinase assay is outlined below. The assay itself can be divided into two phases: a kinase reaction phase, and an ADP detection phase. […]
ADP formation is determined by calculating the emission ratio from the assay well. The emission ratio is calculated by dividing the intensity of the tracer (acceptor) emission by the intensity of the Eu (donor) emission at 615 nm as shown in the equation below.
Adapta® Assay Conditions' • Test Compounds: The Test Compounds are screened in 1% DMSO (final) in the well. […] ATP Km apparent is previously determined using a radiometric assay except when no substrate is available in which case an Adapta® assay is conducted. • Detection Mix: The Detection Mix is prepared in TR-FRET Dilution Buffer. […] Read on fluorescence plate reader and analyze the data.

Solubility comparison = assay type: physicochemical

Sequence of PIK3CA (P42336 whole entry): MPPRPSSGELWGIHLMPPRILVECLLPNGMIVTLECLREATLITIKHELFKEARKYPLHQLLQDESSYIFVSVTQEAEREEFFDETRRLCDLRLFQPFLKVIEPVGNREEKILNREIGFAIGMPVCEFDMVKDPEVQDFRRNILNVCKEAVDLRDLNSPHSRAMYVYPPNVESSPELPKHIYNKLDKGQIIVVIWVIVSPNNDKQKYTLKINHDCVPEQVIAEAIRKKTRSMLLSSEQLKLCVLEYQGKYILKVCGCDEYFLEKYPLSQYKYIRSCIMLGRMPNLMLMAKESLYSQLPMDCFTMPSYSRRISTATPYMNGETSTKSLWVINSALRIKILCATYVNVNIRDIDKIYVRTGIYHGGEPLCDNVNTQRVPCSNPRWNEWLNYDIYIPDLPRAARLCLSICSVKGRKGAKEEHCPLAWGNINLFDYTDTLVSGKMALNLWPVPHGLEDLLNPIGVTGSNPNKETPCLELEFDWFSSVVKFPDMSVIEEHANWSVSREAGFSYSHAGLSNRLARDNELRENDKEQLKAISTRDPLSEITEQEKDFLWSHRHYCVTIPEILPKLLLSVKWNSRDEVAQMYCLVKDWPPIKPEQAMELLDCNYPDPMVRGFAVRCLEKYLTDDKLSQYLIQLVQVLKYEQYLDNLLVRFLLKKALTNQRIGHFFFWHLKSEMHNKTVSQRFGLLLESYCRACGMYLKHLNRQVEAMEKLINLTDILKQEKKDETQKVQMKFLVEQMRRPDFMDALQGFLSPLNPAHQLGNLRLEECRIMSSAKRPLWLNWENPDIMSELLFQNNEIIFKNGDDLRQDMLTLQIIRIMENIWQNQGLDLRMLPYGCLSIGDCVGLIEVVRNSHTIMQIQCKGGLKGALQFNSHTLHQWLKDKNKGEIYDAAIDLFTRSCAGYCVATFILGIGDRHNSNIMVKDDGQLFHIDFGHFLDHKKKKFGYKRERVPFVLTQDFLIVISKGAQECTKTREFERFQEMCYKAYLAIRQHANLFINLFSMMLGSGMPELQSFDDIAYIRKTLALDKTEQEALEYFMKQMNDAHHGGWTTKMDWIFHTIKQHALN
Sequence of PIK3CA (P27986 whole entry partner): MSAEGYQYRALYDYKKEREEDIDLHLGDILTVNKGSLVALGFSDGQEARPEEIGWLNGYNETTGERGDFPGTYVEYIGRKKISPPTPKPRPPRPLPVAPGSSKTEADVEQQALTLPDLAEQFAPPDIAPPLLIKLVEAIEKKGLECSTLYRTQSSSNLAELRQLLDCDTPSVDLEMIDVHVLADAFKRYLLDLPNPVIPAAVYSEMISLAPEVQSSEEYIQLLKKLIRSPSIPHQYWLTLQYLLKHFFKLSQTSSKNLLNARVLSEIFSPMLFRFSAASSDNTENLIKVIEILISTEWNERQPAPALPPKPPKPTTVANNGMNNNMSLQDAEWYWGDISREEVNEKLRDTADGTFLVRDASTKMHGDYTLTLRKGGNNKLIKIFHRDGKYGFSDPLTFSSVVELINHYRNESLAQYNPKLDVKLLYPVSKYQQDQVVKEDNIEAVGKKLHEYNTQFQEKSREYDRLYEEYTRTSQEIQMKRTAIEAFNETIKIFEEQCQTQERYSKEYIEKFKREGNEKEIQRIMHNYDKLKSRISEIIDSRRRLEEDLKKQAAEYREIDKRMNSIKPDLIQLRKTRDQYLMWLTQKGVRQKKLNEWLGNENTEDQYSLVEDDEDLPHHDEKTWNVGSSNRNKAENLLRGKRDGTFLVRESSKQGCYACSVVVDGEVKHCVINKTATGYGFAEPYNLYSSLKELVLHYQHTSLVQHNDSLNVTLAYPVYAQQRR

SMILES: CS(=O)(=O)Nc1cncc(-c2ccc3ncnc(Nc4cccc(Cl)c4)c3c2)c1 [MOL-162, N-(5-(4-((3-chlorophenyl)amino)quinazolin-6-yl)pyridin-3-yl)methanesulfonamide]
- inhibition of / potency against purified PIK3CA (in words) (PIK3CA): potent dual inhibition
- solubility (comparison) (Solubility comparison): significantly more soluble than MOL-153
